Data reported in BindingDB's records for doi:10.1016/0024-3205(89)90523-7 (Nida Addiction Research Center, 1989).
Where “and” joins values, the source holds several entries; their conditions need not be identical. Equal entries are not always repeated.

Tests used:
[1] = molecular target: T1, Alpha-1A adrenergic receptor (Rattus norvegicus, UniProt P43140)
T1 sequence (P43140 whole entry): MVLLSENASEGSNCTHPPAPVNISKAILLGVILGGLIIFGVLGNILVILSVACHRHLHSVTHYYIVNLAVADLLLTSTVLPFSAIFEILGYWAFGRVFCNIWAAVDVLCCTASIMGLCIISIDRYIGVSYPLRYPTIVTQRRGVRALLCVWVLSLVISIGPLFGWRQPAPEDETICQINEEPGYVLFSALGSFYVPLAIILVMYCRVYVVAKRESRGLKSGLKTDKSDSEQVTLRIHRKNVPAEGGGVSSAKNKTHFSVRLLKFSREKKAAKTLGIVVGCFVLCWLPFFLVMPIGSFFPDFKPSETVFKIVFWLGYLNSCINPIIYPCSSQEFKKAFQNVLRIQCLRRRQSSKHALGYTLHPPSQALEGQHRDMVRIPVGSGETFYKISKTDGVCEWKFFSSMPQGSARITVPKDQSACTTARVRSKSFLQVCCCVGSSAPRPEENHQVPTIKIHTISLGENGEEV

[2] = molecular target: T2, Muscarinic acetylcholine receptor M2 (Rattus norvegicus, UniProt P10980)
T2 sequence (P10980 whole entry): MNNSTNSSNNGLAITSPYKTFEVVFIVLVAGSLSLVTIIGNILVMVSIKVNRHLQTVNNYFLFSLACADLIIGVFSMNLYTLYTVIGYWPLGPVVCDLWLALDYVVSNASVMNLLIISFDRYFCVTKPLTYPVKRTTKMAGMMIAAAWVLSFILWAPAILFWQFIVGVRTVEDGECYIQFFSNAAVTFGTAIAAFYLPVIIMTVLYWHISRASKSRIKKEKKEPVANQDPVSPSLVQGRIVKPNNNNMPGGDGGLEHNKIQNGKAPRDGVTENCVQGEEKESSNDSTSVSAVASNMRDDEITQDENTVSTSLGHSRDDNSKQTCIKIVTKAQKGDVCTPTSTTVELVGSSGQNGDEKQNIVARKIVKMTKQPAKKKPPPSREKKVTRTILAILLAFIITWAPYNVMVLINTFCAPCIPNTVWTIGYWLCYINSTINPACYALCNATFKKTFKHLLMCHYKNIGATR

[3] = molecular target: Norepinephrine transporter (Rattus norvegicus, UniProt Q9JIA2)
[4] = molecular target: 5-hydroxytryptamine receptor 2A (Rattus norvegicus, UniProt P14842)
[5] = molecular target: Sodium-dependent dopamine transporter (Rattus norvegicus, UniProt P23977)
D(1A) dopamine receptor = D(1A) dopamine receptor (Rattus norvegicus, UniProt P18901)
D(2) dopamine receptor = D(2) dopamine receptor (Rattus norvegicus, UniProt P61169)
D(2) dopamine receptor, sequence (P61169 whole entry): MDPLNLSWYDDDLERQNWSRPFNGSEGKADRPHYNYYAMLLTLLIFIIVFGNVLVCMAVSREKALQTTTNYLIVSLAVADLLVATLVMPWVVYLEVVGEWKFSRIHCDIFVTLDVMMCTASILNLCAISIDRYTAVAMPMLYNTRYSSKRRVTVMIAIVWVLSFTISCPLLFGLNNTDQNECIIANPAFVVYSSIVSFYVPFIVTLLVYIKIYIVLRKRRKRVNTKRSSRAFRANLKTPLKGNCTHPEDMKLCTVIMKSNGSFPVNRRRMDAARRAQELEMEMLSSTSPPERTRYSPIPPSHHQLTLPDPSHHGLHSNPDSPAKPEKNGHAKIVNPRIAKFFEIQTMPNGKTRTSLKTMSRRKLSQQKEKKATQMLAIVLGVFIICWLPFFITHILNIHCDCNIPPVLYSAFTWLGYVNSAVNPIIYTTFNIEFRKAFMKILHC

Sodium-dependent dopamine transporter, sequence (P23977 whole entry): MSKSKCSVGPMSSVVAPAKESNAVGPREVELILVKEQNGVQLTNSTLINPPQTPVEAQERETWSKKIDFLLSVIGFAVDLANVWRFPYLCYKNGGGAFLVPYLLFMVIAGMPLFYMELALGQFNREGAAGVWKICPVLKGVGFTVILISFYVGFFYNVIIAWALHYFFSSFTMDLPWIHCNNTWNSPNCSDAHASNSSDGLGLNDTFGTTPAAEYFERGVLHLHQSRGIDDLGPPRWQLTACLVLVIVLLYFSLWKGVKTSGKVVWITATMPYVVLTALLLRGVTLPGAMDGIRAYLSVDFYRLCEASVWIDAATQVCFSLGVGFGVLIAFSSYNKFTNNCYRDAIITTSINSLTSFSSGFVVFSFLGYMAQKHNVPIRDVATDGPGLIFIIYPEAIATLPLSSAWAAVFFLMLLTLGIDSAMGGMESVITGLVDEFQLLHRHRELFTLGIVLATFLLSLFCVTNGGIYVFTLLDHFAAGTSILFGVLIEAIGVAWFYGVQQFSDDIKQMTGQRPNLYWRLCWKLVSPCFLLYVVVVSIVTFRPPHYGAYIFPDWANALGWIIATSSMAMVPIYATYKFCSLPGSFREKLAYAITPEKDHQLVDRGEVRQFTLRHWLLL
D(1A) dopamine receptor, sequence (P18901 whole entry): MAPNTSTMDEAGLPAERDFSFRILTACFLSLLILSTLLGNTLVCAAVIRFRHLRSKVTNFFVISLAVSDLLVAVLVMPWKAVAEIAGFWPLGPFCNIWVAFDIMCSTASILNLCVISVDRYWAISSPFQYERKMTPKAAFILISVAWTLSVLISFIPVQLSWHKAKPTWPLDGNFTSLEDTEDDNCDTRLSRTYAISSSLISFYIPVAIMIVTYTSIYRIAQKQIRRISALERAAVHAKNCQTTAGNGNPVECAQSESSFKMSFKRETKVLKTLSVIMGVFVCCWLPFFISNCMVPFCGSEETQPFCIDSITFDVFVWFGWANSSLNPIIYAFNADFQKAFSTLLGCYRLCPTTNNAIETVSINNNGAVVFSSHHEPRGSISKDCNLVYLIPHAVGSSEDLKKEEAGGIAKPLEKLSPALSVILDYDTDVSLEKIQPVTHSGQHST
5-hydroxytryptamine receptor 2A, sequence (P14842 whole entry): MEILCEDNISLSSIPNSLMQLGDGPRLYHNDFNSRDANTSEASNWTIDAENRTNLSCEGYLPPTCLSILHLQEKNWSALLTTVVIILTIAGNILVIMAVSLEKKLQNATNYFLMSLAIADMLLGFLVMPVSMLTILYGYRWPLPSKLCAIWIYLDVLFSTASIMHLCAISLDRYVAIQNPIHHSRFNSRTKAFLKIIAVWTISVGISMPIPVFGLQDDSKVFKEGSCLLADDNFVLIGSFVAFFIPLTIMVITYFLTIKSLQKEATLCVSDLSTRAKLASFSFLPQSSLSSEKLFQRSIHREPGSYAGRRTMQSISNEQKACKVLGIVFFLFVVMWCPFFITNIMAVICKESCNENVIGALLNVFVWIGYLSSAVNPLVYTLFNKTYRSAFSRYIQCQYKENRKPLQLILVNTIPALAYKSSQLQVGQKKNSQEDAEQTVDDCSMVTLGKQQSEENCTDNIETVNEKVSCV

CNc1cc(OC)c(C(=O)NCCN(C)Cc2ccc(I)cc2)cc1Cl [CAS_130377]
Ki [1]: 62 nM | Ki [2]: 110 nM | Ki [3]: 2720 nM | Ki [4]: 1790 nM | Ki [5]: 209 nM | Ki (D(1A) dopamine receptor): 1880 nM | Ki (D(2) dopamine receptor): 0.13 nM and 0.215 nM
